Results reported in paper PMC12769565, “Design, synthesis and biological activity of glycoconjugated ADAMTS5 exosite inhibitors: applications in osteoarthritis and ovarian cancer models” (Scientific Reports, 2025).
≈ marks a conversion by molar mass, not a printed value.

What was measured:
[1] = Solubility determination in PBS by UV-Vis absorbance at 284 nm; format: physicochemical; settings: PBS buffer, aqueous buffer, kinetic from dmso stock, pH 7.4, room temperature, read-out: upper solubility limit
Protocol: The solubility of compounds 4b and 2 was assessed in PBS at pH 7.4 and room temperature. Stock solutions of the compounds (10 mM in DMSO) were diluted in PBS buffer to achieve final concentrations between 1,000 µM − 12.5 µM. Two-hundred microliters of the proper compound solutions in PBS buffer were added in a 96-well plate, and the absorbance was measured at 284 nm using a SPECTROstar Nano UV-Vis spectrophotometer (220–1,000 nm, Ortenberg, Germany). Analyses were performed in triplicate, and the mean value was calculated for each sample.

[2] = test system: HEK293T cells; test: Cell viability MTS assay; format: cell-based, human; settings: 100 µM; 72 h; vs DMSO control
Protocol: (§1) Cell viability was assessed using CellTiter® 96 Aqueous One Solution Cell Proliferation Assay (Promega, G3582) following the manufacturer’s protocol. The assay is based on the reduction of [3-(4,5-dimethylthiazol-2-yl)-5-(3-carboxymethoxyphenyl)-2-(4-sulfophenyl)-2 H-tetrazolium] (MTS) and phenazine ethosulfate into formazan. Compounds 2 and 4b, GM6001 (Merck, 364206) (10–100 µM), or DMSO control were incubated in 48-well Nunc™ plates (Thermo Fisher Scientific,150687) with HEK293T cells, human non-OA chondrocytes, porcine cartilage explants, or human OA cartilage explants for 72 h. At least 3 independent experiments were carried out with 3 technical replicates each. For experiments involving human samples, independent experiments were carried out on 3 different donors. Absorbance at 490 nm was measured on a SpectraMax i3x Multi-Mode Platform (Molecular Devices). Cell viability was normalized to DMSO controls.

[3] = test system: human non-OA chondrocytes; test: Cell viability MTS assay; format: cell-based; settings: 72 h, vs DMSO control
Protocol: Non-OA human chondrocytes were isolated from knee cartilage tissues obtained from the Stanmore BioBank, Institute of Orthopaedics, Royal National Orthopaedic Hospital, Stanmore, UK, from 3 donors following informed consent and approval by the Royal Veterinary College Ethics and Welfare Committee (Institutional approval URN 2012 0048 H) as before.
as §1

[4] = test system: porcine cartilage explants; test: Cell viability MTS assay; format: cell-based, pig; settings: 100 µM; 72 h; vs DMSO control
Protocol: Porcine articular cartilage from the joints of 3–9 month old pigs was supplied by a local abattoir within 2 h of slaughter and dissected into small pieces approximately 3 mm long and 3–4 mm wide. Each piece weighed roughly 10 mg. After dissection, the cartilage was allowed to acclimatize for 24 h at 37 °C under 5% CO2 in Dulbecco’s Modified Eagle Medium (DMEM) containing 100 U/ml penicillin, 100 µg/ml streptomycin, 10% fetal bovine serum (FBS).
as §1

[5] = test system: A2780-Rab25; test: OC cell proliferation (DRAQ5 cell numbers); format: cell-based; settings: 24 h
Protocol: A2780-Rab25 (3,000 cells per well) were seeded in a 96-well plate and incubated with compound 2 (10 µM and 50 µM) or DMSO control for 24 h. Cells were fixed with 4% paraformaldehyde and stained with 5 µM DRAQ5 in PBS for 1 h at room temperature with gentle rocking. Cells were washed twice with PBS for 30 min and kept in PBS for imaging. […] was detected by the 700 nm channel (200 μm resolution) of a Licor Odyssey Sa instrument. The signal intensity (total intensity minus total background) of each well was quantified in Image Studio Lite software.

Compound: CCC(C)N(Cc1cn(CCCO[C@@H]2O[C@H](CO)[C@@H](O[C@@H]3O[C@H](CO)[C@H](O)[C@H](O)[C@H]3O)[C@H](O)[C@H]2NC(C)=O)nn1)S(=O)(=O)c1ccc(-c2ccccc2)cc1 (stereo partly drawn) [compound 2, N-((2R,3R,4R,5 S,6R)-2-(3-(4-((N-(sec-butyl)-[1,1’-biphenyl]-4-sulfonamido)methyl)-1H-1,2,3-triazol-1-yl)propoxy)-4-hydroxy-6-(hydroxymethyl)-5-(((2 S,3R,4 S,5R,6R)-3,4,5-trihydroxy-6-(hydroxymethyl)tetrahydro-2 H-pyran-2-yl)oxy)tetrahydro-2 H-pyran-3-yl)acetamide]
- solubility [1]: 300 µM (≈ 238 µg/mL)
- inhibition of cell viability [2]: Neither 2, nor the broad-spectrum zinc-chelating metalloproteinase inhibitor GM6001[40] had an effect on cell viability
- inhibition of cell viability ([3]; 50 µM): No significant effect
- inhibition of cell viability ([3]; 100 µM): No significant effect
- decrease of cell viability [4]: did not exhibit cytotoxicity
- A2780-Rab25 cell numbers compared to DMSO control ([5]; 10 µM): did not detect any significant difference
- A2780-Rab25 cell numbers compared to DMSO control ([5]; 50 µM): did not detect any significant difference
